Source: article PMC10410440, “Preclinical PK investigation of a novel IDO1/TDO dual inhibitor—SHR9146 in mouse plasma and tissues by LC-MS/MS” (Frontiers in Oncology, 2023)
Values joined by “and” are separate entries in the source; they are usually repeats but may differ in a detail not shown here. Equal entries are not always repeated. “Also recorded” adds a separate entry of the source. Where two headings read alike, the source gives them in different places.

Experiment: Plasma pharmacokinetics of SHR9146 in mice (LC-MS/MS, non-compartmental analysis)
Format: in vivo, ICR mice
Settings: for AUC(0-t): read-out: AUC0-t; for half-life: read-out: t1/2 (converted); for Cmax: read-out: Cmax; for Tmax: read-out: Tmax
Procedure: ICR mice with body weight 16–26 g were supplied by Shanghai Lingchang Biotechnology Co., Ltd. (animal breeding license number SCXK (Shanghai) 2013-0018) and housed at Shanghai Institute of Materia Medica, Chinese Academy of Sciences [animal use license number SYXK (Shanghai) 2015-0027]. The mice used in this study were fasted overnight for 12 h but had free access to water. Food was supplied 4 h post-dose. All experiments in this study were conducted in accordance with the Guidelines for the Care and Use of Laboratory Animals of Shanghai Institute of Materia Medica, Chinese Academy of Sciences.
A total of 30 mice were randomly assigned into five groups with equal numbers, males and females. One group was intravenously administrated with 5 mg/kg SHR9146 dissolved in […] plus 95% saline (adjusted pH to 4.0) under sterile conditions. The remaining four groups were administered respectively with a single dose of 20 , 40, or 80 mg/kg or multiple doses of 20 mg/kg twice daily for 7 days, by oral gavage of SHR9146 dissolved in 0.5% CMC-Na. Blood samples were obtained from the fossa orbitalis vein at 15 and 30 min and 1.0, 2.0, 4.0, 6.0, 8.0, 10.0, and 24.0 h after oral gavage administration. An additional 5-min time point was included for iv injection, as well as the pre-drug administration time points on the fifth, sixth, and seventh days in the multiple-dose group. The blood samples were collected in EDTA K2 anticoagulant blood collection tubes and centrifuged at 1,000 rpm for 5 min at 4°C. The supernatant plasma samples were thus produced.
Briefly as follows, an aliquot of 25-μL plasma or tissue homogenate was spiked with 100 μL of internal standard solution (1 μg/mL for plasma, 0.2 μg/mL for tissue homogenate) and 300 μL of methanol added and vortex mixed for 60 s. The mixture was then centrifuged at 14,000 rpm at 4°C for 5.0 min, and the supernatant was diluted with methanol–water (4:1, v/v) in a ratio of 1:9 for the plasma or 1:1 for the tissue homogenate, and 5 μL of the resulting solution was injected for the LC-MS/MS analysis.
The pharmacokinetic parameters of SHR9146 in mouse plasma were estimated by Phoenix 1.4 software using a non-compartmental model.
The mean concentration–time curves of SHR9146 in mouse plasma after a single oral gavage dose of 20, 40, or 80 mg/kg, or a single intravenous dose of 5 mg/kg, or the 7th-day steady state after twice-daily multiple oral doses of 20 mg/kg are shown in Figure 5 (Table S6).

[1] = female, ICR, mouse, plasma, iv, 5 mg/kg, 5 mg/kg i.v. single dose, female mice, plasma
[2] = female, ICR, mouse, plasma, po, 20 mg/kg, 20 mg/kg i.g. bid, 7 days (7th-day steady state), female mice, plasma
[3] = female, ICR, mouse, plasma, po, 20 mg/kg, 20 mg/kg i.g. single dose, female mice, plasma
[4] = female, ICR, mouse, plasma, po, 40 mg/kg, 40 mg/kg i.g. single dose, female mice, plasma
[5] = female, ICR, mouse, plasma, po, 80 mg/kg, 80 mg/kg i.g. single dose, female mice, plasma
[6] = male, ICR, mouse, plasma, iv, 5 mg/kg, 5 mg/kg i.v. single dose, male mice, plasma
[7] = male, ICR, mouse, plasma, po, 20 mg/kg, 20 mg/kg i.g. bid, 7 days (7th-day steady state), male mice, plasma
[8] = male, ICR, mouse, plasma, po, 20 mg/kg, 20 mg/kg i.g. single dose, male mice, plasma
[9] = male, ICR, mouse, plasma, po, 40 mg/kg, 40 mg/kg i.g. single dose, male mice, plasma
[10] = male, ICR, mouse, plasma, po, 80 mg/kg, 80 mg/kg i.g. single dose, male mice, plasma
[11] = single oral dosing 20 to 80 mg/kg pooled, mouse plasma, n=6

`OCCn1cc(-c2ccc(N3CCC([C@H]4c5c(F)cccc5-c5cncn54)CC3)cc2)cn1` [SHR9146] gave an MRT inf (both sexes, ICR, mouse, po, 80 mg/kg i.g. single dose, all mice (Totol, 3 male + 3 female), plasma, read-out: MRT0-∞) of 4.6 h, an AUC(0-inf) (female, ICR, mouse, plasma, iv, 5 mg/kg, 5 mg/kg i.v. single dose, female mice) of 6910 ng·h/mL and an AUC(0-t) [1] of 6800 ng·h/mL. The half-life [1] was 0.665 h, the AUC(0-inf) (female, ICR, mouse, plasma, po, 20 mg/kg, 20 mg/kg i.g. bid, 7 days (7th-day steady state), female mice) was 24300 ng·h/mL and the AUC(0-t) [2] was 24200 ng·h/mL. For the same compound, the Cmax [2] was 10900 ± 737 ng/mL, the Tmax [2] was 0.833 ± 0.289 h and the half-life [2] was 0.951 h. It also gave an AUC(0-inf) (female, ICR, mouse, plasma, po, 20 mg/kg, 20 mg/kg i.g. single dose, female mice) of 17900 ng·h/mL, an AUC(0-t) [3] of 16800 ng·h/mL and a Cmax [3] of 9170 ± 4240 ng/mL. It also gave a Tmax [3] of 0.5 ± 0.433 h, a half-life [3] of 0.866 h and an AUC(0-t) [4] of 12400 ng·h/mL. It also gave a Cmax [4] of 9880 ± 3490 ng/mL, a Tmax [4] of 1.83 ± 1.89 h and an AUC(0-inf) (female, ICR, mouse, plasma, po, 80 mg/kg, 80 mg/kg i.g. single dose, female mice) of 65900 ng·h/mL. For the same compound, the AUC(0-t) [5] was 64700 ng·h/mL, the Cmax [5] was 18700 ± 7300 ng/mL and the Tmax [5] was 1.17 ± 0.764 h. The half-life [5] was 1.49 h, the AUC(0-inf) (male, ICR, mouse, plasma, iv, 5 mg/kg, 5 mg/kg i.v. single dose, male mice) was 6950 ng·h/mL and the AUC(0-t) [6] was 6730 ng·h/mL. The half-life [6] was 0.761 h, the AUC(0-inf) (male, ICR, mouse, plasma, po, 20 mg/kg, 20 mg/kg i.g. bid, 7 days (7th-day steady state), male mice) was 24400 ng·h/mL and the AUC(0-t) [7] was 24300 ng·h/mL. It also gave a Cmax [7] of 10500 ± 993 ng/mL, a Tmax [7] of 0.833 ± 0.289 h and a half-life [7] of 1.06 h. For the same compound, the AUC(0-inf) (male, ICR, mouse, plasma, po, 20 mg/kg, 20 mg/kg i.g. single dose, male mice) was 14600 ng·h/mL, the AUC(0-t) [8] was 14400 ng·h/mL and the Cmax [8] was 10000 ± 2370 ng/mL. It also gave a Tmax [8] of 0.417 ± 0.144 h, a half-life [8] of 0.531 h and an AUC(0-inf) (male, ICR, mouse, plasma, po, 40 mg/kg, 40 mg/kg i.g. single dose, male mice) of 33400 ng·h/mL. The AUC(0-t) [9] was 31000 ng·h/mL, the Cmax [9] was 15000 ± 3240 ng/mL and the Tmax [9] was 1.33 ± 0.577 h. The half-life [9] was 1.66 h, the AUC(0-inf) (male, ICR, mouse, plasma, po, 80 mg/kg, 80 mg/kg i.g. single dose, male mice) was 75900 ng·h/mL and the AUC(0-t) [10] was 75300 ng·h/mL. It also gave a Cmax [10] of 15500 ± 6150 ng/mL, a Tmax [10] of 1.83 ± 1.89 h and a half-life [10] of 3.3 h. For the same compound, the “Vd, post-oral” value (oral 20 to 80 mg/kg pooled, mouse plasma, n=6) was 3.427 ± 1.617 L/kg, the “dose dependence of oral pharmacokinetics” value (oral 20 to 80 mg/kg, mice, Cmax and AUC) was “dose proportionality; also recorded: linear pharmacokinetics characteristics; also recorded: dose-independent kinetics” and the “CL, post-oral” value [11] was 19.8 ± 0.9 mL/min/kg and 19.769 ± 0.866 mL/min/kg. For the same compound, the Vd, post-oral [11] was 3.43 ± 1.62 L/kg.
